From Sander's compilation of Henry's law constants (doi:10.1111/j.1365-2621.1980.tb00916.x)

Assay: Henry solubility constant Hcp at 298.15 K (mol/(m3 Pa))
Conditions: reference: Mazza (1980)
In the case of CCCS [1-propanethiol], the “Henry solubility constant Hcp” value is reported as 0.0009. For CCCO [1-propanol], the “Henry solubility constant Hcp” value was 3.7. In the case of Cc1ccc(C)s1 [2,5-dimethylthiophene], the “Henry solubility constant Hcp” value is reported as 0.0037. With CC(C)O [2-propanol] the “Henry solubility constant Hcp” value was 2.1. With C=CCSCC=C [3,3'-thiobis-1-propene] the “Henry solubility constant Hcp” value was 0.0071. With C=CCSSCC=C [4,5-dithia-1,7-octadiene] the “Henry solubility constant Hcp” value was 0.0075. For C=CCSC [allyl methyl sulfide], the “Henry solubility constant Hcp” value was 0.005. In the case of CCCSSCCC [dipropyl disulfide], the “Henry solubility constant Hcp” value is reported as 0.018. With CCO [ethanol] the “Henry solubility constant Hcp” value was 6.2. With CCCSC [methyl propyl sulfide] the “Henry solubility constant Hcp” value was 0.0043.
